The values that follow are results of earlier work, collected in US12569478B2 (priority 2021, dated 2026).

The structures appear in SMILES notation.

The conditions of this series: in vivo.

As usually defined, the half-life is the time in which the quantity being followed falls by half. Consider `C=CCN1CC[C@]23c4c5ccc(O)c4O[C@H]2C(=O)CC[C@@]3(O)[C@H]1C5` [naloxone], for which the half-life is roughly 1 h.
